# Target: T1, mouse ENT-1 transporter (Mus musculus, UniProt Q9JIM1)
# T1 construct: expressed in transfected cells
# T1 sequence (Q9JIM1 1-460): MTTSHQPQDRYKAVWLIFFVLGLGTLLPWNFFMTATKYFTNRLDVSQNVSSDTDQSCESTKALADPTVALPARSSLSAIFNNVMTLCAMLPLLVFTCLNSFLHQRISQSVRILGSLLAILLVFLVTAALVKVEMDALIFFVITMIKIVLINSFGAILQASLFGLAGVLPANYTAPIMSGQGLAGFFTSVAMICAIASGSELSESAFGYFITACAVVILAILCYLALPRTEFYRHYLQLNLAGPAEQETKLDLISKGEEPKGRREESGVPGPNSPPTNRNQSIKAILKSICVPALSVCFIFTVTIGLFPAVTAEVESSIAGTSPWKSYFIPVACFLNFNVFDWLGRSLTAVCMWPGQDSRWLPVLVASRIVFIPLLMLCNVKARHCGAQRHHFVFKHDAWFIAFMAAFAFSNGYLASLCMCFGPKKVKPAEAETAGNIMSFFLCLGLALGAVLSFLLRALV
# Assay: Measure of adenosine transport activity (ENT1 adenosine uptake inhibition)
# Type: cell-based
# Settings: stable cells expressing mouse ENT-1, [2,8-3H]-adenosine 6 nM, 20 min
# Experimental: To measure adenosine transport activity of ENT-1 mammalian cells, stable cells expressing the mouse ENT-1 transporter were plated on day 1 in 96-well culture plates at the density of 60,000 cells/well, in complete DMEM/F12 medium supplemented with glutamax, 10% FBS and 10 μg/ml puromycin. On day 2, the medium was aspirated and the cells were washed twice with uptake buffer (10 mM Hepes-Tris, pH 7.4 containing 150 mM NaCl, 1 mM CaCl2), 2.5 mM KCl, 2.5 mM MgSO4, 10 mM D-glucose) (UB). For inhibition experiments, cells were then incubated at RT with various concentrations of compounds with 1% DMSO final. Non-specific uptake was defined in the presence of 10 μM S-(4-Nitrobenzyl)-6-thioinosine (NBTI, Sigma Cat #N2255).
# The plates were then incubated for 20 min with gentle shaking and the reaction was stopped by aspiration of the mixture and washing (three times) with ice-cold UB. The cells were lysed by the addition of scintillation liquid, shaken 3 hours and the radioactivity in the cells was estimated using a microplates scintillation counter (TopCount NXT, Packard).
row,IC50,SMILES
1,1140 nM,"Cc1cc(N2C(=O)C(C)(C)c3ccc(-c4cnc(C)nc4)cc32)cc(C)n1 [Example 66, 1-(2,6-Dimethylpyridin-4-yl)-3,3-dimethyl-6-(2-methylpyrimidin-5-yl)indolin-2-one]"
2,36 nM,"Cc1ncc(-c2ccc3c(c2)N(c2ccc(C4CC4)nn2)C(=O)C3(C)C)cn1 [Example 134, 1-(6-cyclopropylpyridazin-3-yl)-3,3-dimethyl-6-(2-methylpyrimidin-5-yl)indolin-2-one]"
3,1290 nM,"Cc1ncc(-c2ccc3c(c2)N(c2ncc[nH]2)C(=O)C3(C)C)cn1 [Example 92, 1-(1H-imidazol-2-yl)-3,3-dimethyl-6-(2-methylpyrimidin-5-yl)indolin-2-one]"
4,1900 nM,"Cc1ncc(-c2ccc3c(c2)N(c2cnc(CF)nc2)C(=O)C3(C)C)cn1 [Example 108, 1-(2-(fluoromethyl)pyrimidin-5-yl)-3,3-dimethyl-6-(2-methylpyrimidin-5-yl)indolin-2-one]"
5,355 nM,"Cc1ncc(-c2ccc3c(c2)N(c2ccc(C)s2)C(=O)C3(C)C)cn1 [Example 27, 3,3-Dimethyl-6-(2-methylpyrimidin-5-yl)-1-(5-methylthiophen-2-yl)indolin-2-one]"
6,827 nM,"Cc1ncc(-c2ccc3c(c2)N(c2cnc(C)c(C)c2)C(=O)C3(C)C)cn1 [Example 75, 1-(5,6-dimethylpyridin-3-yl)-3,3-dimethyl-6-(2-methylpyrimidin-5-yl)indolin-2-one]"
7,59 nM,"Cc1ncc(-c2ccc3c(c2)N(c2ccc(C4CC4)nc2)C(=O)C3(C)C)cn1 [Example 32, 1-(6-Cyclopropylpyridin-3-yl)-3,3-dimethyl-6-(2-methylpyrimidin-5-yl)indolin-2-one]"
8,669 nM,"Cc1ncc(-c2ccc3c(c2)N(c2cc(Cl)nc(C)n2)C(=O)C3(C)C)cn1 [Example 121, 1-(6-chloro-2-methylpyrimidin-4-yl)-3,3-dimethyl-6-(2-methylpyrimidin-5-yl)indolin-2-one]"
9,168 nM,"Cc1ncc(-c2ccc3c(c2)N(c2ccc(CO)nc2)C(=O)C3(C)C)cn1 [Example 31, 1-(6-(Hydroxymethyl)pyridin-3-yl)-3,3-dimethyl-6-(2-methylpyrimidin-5-yl)indolin-2-one]"
10,7030 nM,"Cc1cc(-c2ccc3c(c2)N(c2cn(C)cn2)C(=O)C3(C)C)ccn1 [Example 11, 3,3-Dimethyl-1-(1-methyl-1H-imidazol-4-yl)-6-(2-methylpyridin-4-yl)indolin-2-one]"
11,300 nM,"CCc1cncc(N2C(=O)C(C)(C)c3ccc(-c4cnc(C)nc4)cc32)c1 [Example 156, 1-(5-ethylpyridin-3-yl)-3,3-dimethyl-6-(2-methylpyrimidin-5-yl)indolin-2-one]"
12,337 nM,"Cc1cncc(-c2ccc3c(c2)N(c2cncc(C)n2)C(=O)C3(C)C)c1 [Example 145, 3,3-dimethyl-1-(6-methylpyrazin-2-yl)-6-(5-methyl-3-pyridyl)indolin-2-one]"
13,4780 nM,"Cc1cnc(-c2ccc3c(c2)N(c2cnc(C)nc2)C(=O)C3(C)C)cn1 [Example 133, 3,3-dimethyl-6-(5-methylpyrazin-2-yl)-1-(2-methylpyrimidin-5-yl)indolin-2-one]"
14,5880 nM,"Cc1ccc(-c2ccc3c(c2)N(c2cn(C)cn2)C(=O)C3(C)C)cn1 [Example 10, 3,3-Dimethyl-1-(1-methyl-1H-imidazol-4-yl)-6-(6-methylpyridin-3-yl)indolin-2-one]"
15,7660 nM,"Cc1ncc(-c2ccc3c(c2)N(c2ncc(C)[nH]2)C(=O)C3(C)C)cn1 [Example 88, 3,3-dimethyl-1-(4-methyl-1H-imidazol-2-yl)-6-(2-methylpyrimidin-5-yl)indolin-2-one]"
16,4330 nM,"Cc1ncc(-c2ccc3c(c2)N(c2cnccc2C)C(=O)C3(C)C)cn1 [Example 99, 3,3-dimethyl-1-(4-methylpyridin-3-yl)-6-(2-methylpyrimidin-5-yl)indolin-2-one]"
17,316 nM,"Cc1ccc(N2C(=O)C(C)(C)c3ccc(-c4cnc(C)nc4)cc32)nc1 [Example 56, 3,3-Dimethyl-1-(5-methylpyridin-2-yl)-6-(2-methylpyrimidin-5-yl)indolin-2-one]"
18,5790 nM,"Cc1cnc(-c2ccc3c(c2)N(c2ccn(C)n2)C(=O)C3(C)C)cn1 [Example 138, 3,3-dimethyl-1-(1-methyl-1H-pyrazol-3-yl)-6-(5-methylpyrazin-2-yl)indolin-2-one]"
19,1500 nM,"Cc1ncc(-c2ccc3c(c2)N(c2cnn(C)c2)C(=O)C3(C)C)cn1 [Example 80, 3,3-dimethyl-1-(1-methyl-1H-pyrazol-4-yl)-6-(2-methylpyrimidin-5-yl)indolin-2-one]"
20,4470 nM,"Cc1cncc(N2C(=O)C(C)(C)c3ccc(-c4ccnc(C)n4)cc32)n1 [Example 154, 3,3-dimethyl-1-(6-methylpyrazin-2-yl)-6-(2-methylpyrimidin-4-yl)indolin-2-one]"
21,154 nM,"Cc1ncc(-c2ccc3c(c2)N(c2cnc(C#N)cn2)C(=O)C3(C)C)cn1 [Example 96, 5-(3,3-dimethyl-6-(2-methylpyrimidin-5-yl)-2-oxoindolin-1-yl)pyrazine-2-carbonitrile]"
22,27 nM,"Cc1cnc(N2C(=O)C(C)(C)c3ccc(-c4cnc(C)nc4)cc32)cn1 [Example 57, 3,3-Dimethyl-1-(5-methylpyrazin-2-yl)-6-(2-methylpyrimidin-5-yl)indolin-2-one]"
23,1400 nM,"Cc1ncc(-c2ccc3c(c2)N(c2ccccn2)C(=O)C3(C)C)cn1 [Example 44, 3,3-Dimethyl-6-(2-methylpyrimidin-5-yl)-1-(pyridin-2-yl)indolin-2-one]"
24,626 nM,"Cc1cnnc(N2C(=O)C(C)(C)c3ccc(-c4cnc(C)nc4)cc32)c1 [Example 122, 3,3-dimethyl-1-(5-methylpyridazin-3-yl)-6-(2-methylpyrimidin-5-yl)indolin-2-one]"
25,3450 nM,"Cc1ccc(-c2ccc3c(c2)N(c2ccnc(C)c2)C(=O)C3(C)C)cn1 [Example 19, 3,3-Dimethyl-6-(6-methylpyridin-3-yl)-1-(2-methylpyridin-4-yl)indolin-2-one]"
26,2460 nM,"Cc1cc(N2C(=O)C(C)(C)c3ccc(-n4cnc(C(C)C)c4)cc32)ccn1 [Example 36, 6-(4-Isopropylimidazol-1-yl)-3,3-dimethyl-1-(2-methyl-4-pyridyl)indolin-2-one]"
27,10200 nM,"Cc1ncc(-c2ccc3c(c2)N(c2cnc(CO)nc2)C(=O)C3(C)C)cn1 [Example 102, 1-(2-(hydroxymethyl)pyrimidin-5-yl)-3,3-dimethyl-6-(2-methylpyrimidin-5-yl)indolin-2-one]"
28,4070 nM,"Cc1cnc(-c2ccc3c(c2)N(c2ccc(C)nn2)C(=O)C3(C)C)cn1 [Example 137, 3,3-dimethyl-6-(5-methylpyrazin-2-yl)-1-(6-methylpyridazin-3-yl)indolin-2-one]"
29,148 nM,"Cc1ccc(N2C(=O)C(C)(C)c3ccc(-c4cnc(C)nc4)cc32)cn1 [Example 12, 3,3-Dimethyl-1-(6-methylpyridin-3-yl)-6-(2-methylpyrimidin-5-yl)indolin-2-one]"
30,2280 nM,"Cc1cccc(-c2ccc3c(c2)N(c2cncc(C)n2)C(=O)C3(C)C)n1 [Example 135, 3,3-dimethyl-1-(6-methylpyrazin-2-yl)-6-(6-methyl-2-pyridyl)indolin-2-one]"
